1 molecule from PMC4033643 (Chemical research in toxicology, 2014) can be followed below.

As usually defined, the IC50 is the concentration that gives 50% inhibition.

Assay [1] deals with T1, human TrxR1 Sec498Cys mutant enzyme (Homo sapiens, UniProt Q16881, U648C).
T1 sequence (Q16881 151-649 U648C): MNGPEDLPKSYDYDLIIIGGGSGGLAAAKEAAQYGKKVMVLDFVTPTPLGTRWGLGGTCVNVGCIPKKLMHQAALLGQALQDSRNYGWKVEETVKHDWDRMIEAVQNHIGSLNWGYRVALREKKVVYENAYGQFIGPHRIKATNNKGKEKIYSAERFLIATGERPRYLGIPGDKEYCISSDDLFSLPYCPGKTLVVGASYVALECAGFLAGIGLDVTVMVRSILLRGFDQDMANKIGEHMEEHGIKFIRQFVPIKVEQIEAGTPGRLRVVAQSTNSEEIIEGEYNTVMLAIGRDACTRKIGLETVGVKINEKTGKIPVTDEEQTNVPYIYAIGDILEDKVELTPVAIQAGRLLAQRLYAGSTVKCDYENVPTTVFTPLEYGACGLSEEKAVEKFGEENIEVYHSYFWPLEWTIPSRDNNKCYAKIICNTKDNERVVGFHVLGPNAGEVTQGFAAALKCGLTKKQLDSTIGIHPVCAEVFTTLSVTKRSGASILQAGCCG
The experiment in a line: DTNB reduction assay with recombinant mutant enzyme. It is filed as biochemical.

In assay [2] the target is T2, thioredoxin reductase 1 (TrxR1) (Rattus norvegicus, UniProt O89049).
T2 sequence (O89049 1-499): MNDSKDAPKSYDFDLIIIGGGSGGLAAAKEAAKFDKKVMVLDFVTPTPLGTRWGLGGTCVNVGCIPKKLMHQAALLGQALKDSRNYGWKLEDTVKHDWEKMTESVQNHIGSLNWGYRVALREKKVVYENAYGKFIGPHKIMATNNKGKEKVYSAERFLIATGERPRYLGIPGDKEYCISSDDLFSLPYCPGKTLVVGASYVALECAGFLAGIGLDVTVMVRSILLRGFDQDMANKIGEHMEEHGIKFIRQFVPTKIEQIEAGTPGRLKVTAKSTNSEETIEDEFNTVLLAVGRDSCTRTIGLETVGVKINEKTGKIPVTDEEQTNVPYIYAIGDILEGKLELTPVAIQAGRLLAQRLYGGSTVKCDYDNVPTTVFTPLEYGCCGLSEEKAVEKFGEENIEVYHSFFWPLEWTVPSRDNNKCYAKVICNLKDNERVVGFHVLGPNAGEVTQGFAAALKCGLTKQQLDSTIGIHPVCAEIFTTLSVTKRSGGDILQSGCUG
The experiment in a line: DTNB reduction assay with purified NADPH-reduced enzyme. It is filed as biochemical.

Consider `CC(=O)N=C1C=CC(=O)C=C1` [NAPQI, N-acetyl-p-benzoquinone imine], for which the IC50 in assay [1] is 17 µM; in assay [2] it was 0.023 µM.
